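Results reflect a 48-hour exposure of cells in 96-well plates to compound at five concentrations. GI50 = concentration required for 50% inhibition of growth. TGI: total growth inhibition.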
Assays:
Test in all cases: inhibition of tumour cell growth, NCI panel, 48 h
HS 578T breast = tested on: HS 578T breast
CCRF-CEM leukemia = tested on: CCRF-CEM leukemia
HCT-116 colon = tested on: HCT-116 colon
OVCAR-8 ovarian = tested on: OVCAR-8 ovarian
SW-620 colon = tested on: SW-620 colon
NCI-H522 lung = tested on: NCI-H522 lung
IGROV1 ovarian = tested on: IGROV1 ovarian
A498 renal = tested on: A498 renal
LOX IMVI melanoma = tested on: LOX IMVI melanoma
SK-MEL-5 melanoma = tested on: SK-MEL-5 melanoma
MDA-MB-468 breast = tested on: MDA-MB-468 breast
EKVX NSCLC = tested on: EKVX NSCLC
A549 NSCLC = tested on: A549 NSCLC
HCC-2998 colon = tested on: HCC-2998 colon
HOP-62 NSCLC = tested on: HOP-62 NSCLC
OVCAR-3 ovarian = tested on: OVCAR-3 ovarian
CAKI-1 renal = tested on: CAKI-1 renal
NCI-H460 lung = tested on: NCI-H460 lung
COLO 205 colon = tested on: COLO 205 colon
HL-60(TB) leukemia = tested on: HL-60(TB) leukemia
HT29 colon = tested on: HT29 colon
SK-MEL-2 melanoma = tested on: SK-MEL-2 melanoma
OVCAR-5 ovarian = tested on: OVCAR-5 ovarian
HOP-92 NSCLC = tested on: HOP-92 NSCLC
UACC-62 melanoma = tested on: UACC-62 melanoma
RPMI-8226 leukemia = tested on: RPMI-8226 leukemia
UO-31 renal = tested on: UO-31 renal
NCI-H23 lung = tested on: NCI-H23 lung
M14 melanoma = tested on: M14 melanoma

CN(C)CCCNC(=O)c1cc(NC(=O)c2cc(NC(=O)c3ccc(/C=C/c4ccccc4)cc3)cn2C)cn1C
GI50 (HS 578T breast): 8.39 µM | TGI (HS 578T breast): > 31.3 µM | GI50 (CCRF-CEM leukemia): 5.03 µM | TGI (CCRF-CEM leukemia): 21.5 µM | GI50 (HCT-116 colon): 5.36 µM | TGI (HCT-116 colon): 13.4 µM | GI50 (OVCAR-8 ovarian): 6.5 µM | TGI (OVCAR-8 ovarian): 18.7 µM | GI50 (SW-620 colon): 6.62 µM | TGI (SW-620 colon): 14.9 µM | GI50 (NCI-H522 lung): 7.34 µM | TGI (NCI-H522 lung): 24.2 µM | GI50 (IGROV1 ovarian): 22.5 µM | TGI (IGROV1 ovarian): > 31.3 µM | GI50 (A498 renal): 25.2 µM | TGI (A498 renal): > 31.3 µM | GI50 (LOX IMVI melanoma): 4.67 µM | TGI (LOX IMVI melanoma): 8.86 µM | GI50 (SK-MEL-5 melanoma): 8.85 µM | TGI (SK-MEL-5 melanoma): > 31.3 µM | GI50 (MDA-MB-468 breast): 5.72 µM | TGI (MDA-MB-468 breast): 14.5 µM | GI50 (EKVX NSCLC): 10.6 µM | TGI (EKVX NSCLC): > 31.3 µM | GI50 (A549 NSCLC): 13.3 µM | TGI (A549 NSCLC): > 31.3 µM | GI50 (HCC-2998 colon): 10.1 µM | TGI (HCC-2998 colon): > 31.3 µM | GI50 (HOP-62 NSCLC): 7.16 µM | TGI (HOP-62 NSCLC): 19.8 µM | GI50 (OVCAR-3 ovarian): 6.75 µM | TGI (OVCAR-3 ovarian): 26.4 µM | GI50 (CAKI-1 renal): 10.9 µM | TGI (CAKI-1 renal): > 31.3 µM | GI50 (NCI-H460 lung): 6.91 µM | TGI (NCI-H460 lung): 16.2 µM | GI50 (COLO 205 colon): 9.44 µM | TGI (COLO 205 colon): 26.4 µM | GI50 (HL-60(TB) leukemia): 7.05 µM | TGI (HL-60(TB) leukemia): 20.7 µM | GI50 (HT29 colon): 5.89 µM | TGI (HT29 colon): 21.1 µM | GI50 (SK-MEL-2 melanoma): 5.32 µM | TGI (SK-MEL-2 melanoma): 10.9 µM | GI50 (OVCAR-5 ovarian): 20.3 µM | TGI (OVCAR-5 ovarian): > 31.3 µM | GI50 (HOP-92 NSCLC): 3.95 µM | TGI (HOP-92 NSCLC): 17.7 µM | GI50 (UACC-62 melanoma): 7.46 µM | TGI (UACC-62 melanoma): > 31.3 µM | GI50 (RPMI-8226 leukemia): 3.51 µM | TGI (RPMI-8226 leukemia): 16.5 µM | GI50 (UO-31 renal): 9.91 µM | TGI (UO-31 renal): > 31.3 µM | GI50 (NCI-H23 lung): 13.2 µM | TGI (NCI-H23 lung): > 31.3 µM | GI50 (M14 melanoma): 5.05 µM | TGI (M14 melanoma): 10.1 µM

From PubChem BioAssay (NCI)
